PMC7933930, “Development of a small molecule that corrects misfolding and increases secretion of Z α1‐antitrypsin” (EMBO Molecular Medicine, 2021)

Key:
α1‐antitrypsin [1] = test: SYPRO Orange thermal shift assay; assay type: biochemical, human; details: 50μM GSK716
Text: Polymerisation of α1‐antitrypsin involves transition through a transient intermediate state known as M*, that is readily populated by the Z variant (Dafforn et al, 1999; Knaupp et al, 2010). The M* conformational ensemble appears to be a distinct species between the native state conformation and that of the final polymer. One of the hallmarks of M* is its recognition by environment‐sensitive fluorescent reporter dyes. Thermal shift assays that make use of the dye SYPRO Orange report the stability of the protein native state against heat‐induced unfolding. […] Native state stability can also be probed by equilibrium unfolding using chemical denaturants, where a peak in bis‐ANS fluorescence corresponds with a maximally populated unfolding intermediate (James & Bottomley, 1998). […] The association of GSK716 induced a marked quenching and blue‐shift of the α1‐antitrypsin intrinsic tryptophan fluorescence spectrum (Fig 4D, inset). The rate of change in fluorescence during association of 10µM GSK716 was proportional to the propensity of α1‐antitrypsin mutants to form polymers in vivo: inert (M), mild (S), moderate (Baghdad) and severe (Z) α1‐antitrypsin (Fig 4D, top and bottom). […]

α1‐antitrypsin [2] = target: T1, α1‐antitrypsin (Homo sapiens, UniProt P01009, E366K); test: Intrahepatic α1‐antitrypsin by ELISA in Z α1‐antitrypsin transgenic mice; assay type: in vivo, mouse
T1 construct: random insertion of the human Z α1‐antitrypsin gene; from tissue; host or cells: hemizygous Z α1-antitrypsin transgenic mice (liver, plasma)
T1 sequence (P01009 25-418 E366K): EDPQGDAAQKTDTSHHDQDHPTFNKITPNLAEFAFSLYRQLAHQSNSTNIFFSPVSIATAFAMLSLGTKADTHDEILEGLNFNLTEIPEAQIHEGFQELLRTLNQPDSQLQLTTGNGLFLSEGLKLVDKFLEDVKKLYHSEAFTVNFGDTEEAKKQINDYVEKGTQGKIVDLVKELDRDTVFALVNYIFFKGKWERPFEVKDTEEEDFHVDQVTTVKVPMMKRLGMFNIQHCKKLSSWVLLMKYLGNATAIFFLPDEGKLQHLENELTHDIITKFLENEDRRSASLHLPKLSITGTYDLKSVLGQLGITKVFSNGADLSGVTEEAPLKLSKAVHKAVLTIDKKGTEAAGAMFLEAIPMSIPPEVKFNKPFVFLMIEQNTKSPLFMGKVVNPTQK
Protocol: Since GSK716 blocks polymer formation in cells, we explored the effect of dosing GSK716 on liver polymer levels. […] GSK716 was dosed at 100 mg/kg three times a day for 20 days. […] Liver polymer levels were investigated by staining with 2C1 anti‐polymer monoclonal antibody and were scored blind by a pathologist or by quantification using an algorithm to measure all areas of positive staining (Fig EV1). There was no difference observed in total liver polymer load when assessed by manual or quantitative scoring (Fig 6B and C). There was no significant fibrosis in any of the liver sections. Intrahepatic α1‐antitrypsin was also assessed by ELISA. The vast majority (95–100%) of α1‐antitrypsin within the liver was polymer with the monomer typically being below the level of detection. Treatment with GSK716 increased the monomer measured in liver homogenate by approx. fourfold in keeping with the changes seen in blood.

hERG = hERG (Homo sapiens, UniProt Q12809); test: Off‐target panel: hERG (Barracuda); assay type: cell-based; details: Blocker, read-out: Mean (PXC50) (converted)
Chain of hERG (Q12809 whole entry): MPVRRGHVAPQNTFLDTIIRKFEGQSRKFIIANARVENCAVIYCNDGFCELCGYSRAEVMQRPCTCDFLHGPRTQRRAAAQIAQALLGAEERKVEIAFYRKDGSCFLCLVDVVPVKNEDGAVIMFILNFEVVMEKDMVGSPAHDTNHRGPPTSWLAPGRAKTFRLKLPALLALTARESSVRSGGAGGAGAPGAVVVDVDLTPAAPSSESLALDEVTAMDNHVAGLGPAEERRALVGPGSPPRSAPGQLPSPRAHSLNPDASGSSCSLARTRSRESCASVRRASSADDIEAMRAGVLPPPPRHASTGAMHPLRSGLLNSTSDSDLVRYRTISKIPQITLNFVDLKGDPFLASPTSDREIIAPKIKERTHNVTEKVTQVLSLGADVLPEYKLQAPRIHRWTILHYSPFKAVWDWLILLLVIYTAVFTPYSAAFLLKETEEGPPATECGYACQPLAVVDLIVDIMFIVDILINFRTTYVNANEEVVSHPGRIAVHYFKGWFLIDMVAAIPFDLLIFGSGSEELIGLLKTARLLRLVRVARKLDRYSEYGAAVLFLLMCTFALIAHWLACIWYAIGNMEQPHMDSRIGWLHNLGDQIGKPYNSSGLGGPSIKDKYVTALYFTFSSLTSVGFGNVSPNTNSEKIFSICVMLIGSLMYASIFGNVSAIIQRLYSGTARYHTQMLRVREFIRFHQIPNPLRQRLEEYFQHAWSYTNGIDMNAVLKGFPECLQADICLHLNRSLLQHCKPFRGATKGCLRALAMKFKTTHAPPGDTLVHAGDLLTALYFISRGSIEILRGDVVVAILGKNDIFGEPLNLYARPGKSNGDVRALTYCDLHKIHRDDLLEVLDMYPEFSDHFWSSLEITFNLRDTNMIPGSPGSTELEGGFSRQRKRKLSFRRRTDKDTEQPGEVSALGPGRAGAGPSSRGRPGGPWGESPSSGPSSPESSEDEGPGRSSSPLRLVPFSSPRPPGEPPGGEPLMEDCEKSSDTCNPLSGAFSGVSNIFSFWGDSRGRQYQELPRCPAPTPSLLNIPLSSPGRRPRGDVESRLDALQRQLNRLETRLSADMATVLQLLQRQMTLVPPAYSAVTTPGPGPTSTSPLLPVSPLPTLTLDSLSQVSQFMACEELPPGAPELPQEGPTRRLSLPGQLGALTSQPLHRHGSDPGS
Protocol: (§1) GSK716 selectivity and PK properties were profiled in order to investigate the suitability of GSK716 for progression into in vivo studies and the potential for taking it forward as a clinical candidate for testing in humans. Since GSK716 results in loss of inhibitory activity of α1‐antitrypsin, the effect of the compound was assessed on other closely related serpins. […] Furthermore, there were no off‐target effects in a panel of assays considered predictive of known safety liabilities that precluded further development of GSK716 (Table EV1).

MRGPRX2 = MRGPRX2 (Homo sapiens, UniProt Q96LB1); test: Off‐target panel: MRGPRX2 Agonist (DRX); assay type: cell-based; details: read-out: Mean (PXC50)
Chain of MRGPRX2 (Q96LB1 whole entry, species assumed): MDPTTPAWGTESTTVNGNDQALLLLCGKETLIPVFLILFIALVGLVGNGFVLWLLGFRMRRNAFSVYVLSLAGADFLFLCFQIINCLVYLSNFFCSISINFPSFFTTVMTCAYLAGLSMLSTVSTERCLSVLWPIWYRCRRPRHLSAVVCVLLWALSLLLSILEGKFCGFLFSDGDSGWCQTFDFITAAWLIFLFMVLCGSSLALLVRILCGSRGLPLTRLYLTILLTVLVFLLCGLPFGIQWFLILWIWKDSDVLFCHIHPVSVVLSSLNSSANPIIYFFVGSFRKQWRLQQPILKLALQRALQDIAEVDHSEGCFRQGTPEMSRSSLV
Protocol: as §1

Muscarinic M2 = target: T2, Muscarinic M2 (Homo sapiens, UniProt P08172); test: Off‐target panel: Muscarinic M2 (DRX); assay type: cell-based
T2 sequence (P08172 1-466): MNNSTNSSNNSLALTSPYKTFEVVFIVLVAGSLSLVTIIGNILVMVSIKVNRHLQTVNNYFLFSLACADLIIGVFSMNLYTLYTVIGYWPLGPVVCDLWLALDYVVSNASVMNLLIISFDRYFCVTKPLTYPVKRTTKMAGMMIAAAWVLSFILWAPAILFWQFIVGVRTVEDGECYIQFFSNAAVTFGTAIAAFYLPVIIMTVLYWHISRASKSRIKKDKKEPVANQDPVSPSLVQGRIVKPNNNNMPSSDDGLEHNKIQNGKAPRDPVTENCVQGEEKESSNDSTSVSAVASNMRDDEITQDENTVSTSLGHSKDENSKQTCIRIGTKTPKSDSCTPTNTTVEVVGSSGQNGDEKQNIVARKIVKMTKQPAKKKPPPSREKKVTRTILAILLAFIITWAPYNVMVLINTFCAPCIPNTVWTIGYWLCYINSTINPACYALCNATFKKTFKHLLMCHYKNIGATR
Protocol: as §1

OATP1B1 = OATP1B1 (Homo sapiens, UniProt Q9Y6L6); test: Off‐target panel: OATP1B1; assay type: in vitro ADME; details: Inhibition, read-out: Mean (PXC50)
Chain of OATP1B1 (Q9Y6L6 whole entry, species assumed): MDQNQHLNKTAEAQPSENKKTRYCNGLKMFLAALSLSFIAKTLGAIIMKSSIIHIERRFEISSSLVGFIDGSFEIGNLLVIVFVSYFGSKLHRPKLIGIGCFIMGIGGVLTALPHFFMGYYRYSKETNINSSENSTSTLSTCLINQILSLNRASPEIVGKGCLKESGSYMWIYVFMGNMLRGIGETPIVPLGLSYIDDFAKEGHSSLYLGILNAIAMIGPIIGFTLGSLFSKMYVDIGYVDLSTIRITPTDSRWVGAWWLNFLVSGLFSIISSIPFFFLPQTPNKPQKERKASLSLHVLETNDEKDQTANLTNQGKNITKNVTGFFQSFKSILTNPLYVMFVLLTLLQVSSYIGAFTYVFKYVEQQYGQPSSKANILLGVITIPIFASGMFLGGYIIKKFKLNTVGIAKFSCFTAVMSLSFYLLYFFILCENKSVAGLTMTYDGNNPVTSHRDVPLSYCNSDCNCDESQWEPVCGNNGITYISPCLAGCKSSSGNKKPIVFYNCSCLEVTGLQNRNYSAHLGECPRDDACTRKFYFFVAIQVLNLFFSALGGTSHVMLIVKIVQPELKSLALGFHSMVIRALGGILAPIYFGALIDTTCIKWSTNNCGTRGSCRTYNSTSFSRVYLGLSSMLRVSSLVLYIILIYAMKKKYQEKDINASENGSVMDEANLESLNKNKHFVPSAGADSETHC
Protocol: as §1

OPRM1 = OPRM1 (Homo sapiens, UniProt P35372); test: Off‐target panel: OPRM1; assay type: cell-based
Chain of OPRM1 (P35372 whole entry, species assumed): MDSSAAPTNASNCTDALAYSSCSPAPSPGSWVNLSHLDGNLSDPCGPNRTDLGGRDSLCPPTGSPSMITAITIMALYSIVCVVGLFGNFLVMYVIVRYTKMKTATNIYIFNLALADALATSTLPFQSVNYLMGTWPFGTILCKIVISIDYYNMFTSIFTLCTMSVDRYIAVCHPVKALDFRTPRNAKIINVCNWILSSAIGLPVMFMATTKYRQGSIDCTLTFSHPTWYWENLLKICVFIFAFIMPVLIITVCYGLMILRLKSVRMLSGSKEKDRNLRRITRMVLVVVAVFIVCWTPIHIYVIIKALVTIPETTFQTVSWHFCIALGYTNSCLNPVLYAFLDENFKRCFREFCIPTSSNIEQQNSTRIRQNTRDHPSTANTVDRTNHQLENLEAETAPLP
Protocol: as §1

For `CCC[C@@H](NC(=O)c1cccc2c1CC(=O)N2)[C@@H](O)c1cccc(F)c1C` [GSK716], the transition midpoint temperature (α1‐antitrypsin [1]) was “marked increase”, the “increase of monomer measured in liver homogenate” value (α1‐antitrypsin [2]) was “approx. fourfold” and the IC50 (hERG) was 15.8 µM. The EC50 (MRGPRX2) was > 100 µM, the EC50 (Muscarinic M2) was 5.01 µM and the IC50 (Muscarinic M2) was > 50.1 µM. The IC50 (OATP1B1) was > 50.1 µM and the EC50 (OPRM1) was > 100 µM.
